Counter-ions that a name gives are not always drawn. Activity calls are given as the source filed them. No cut-off for these calls is given here.
How the values were obtained:
MDA-MB-231 [1] = assay: Antiproliferative activity against human MDA-MB-231 cells assessed as inhibition of cell growth at 20 uM by SRB assay relative to control; format: functional
HCC1806 [2] = assay: Antiproliferative activity against human HCC1806 cells assessed as inhibition of cell growth at 20 uM by SRB assay relative to control; format: functional
MDA-MB-231 [3] = assay: Antiproliferative activity against human MDA-MB-231 cells assessed as inhibition of cell growth by SRB assay; format: functional, cell-based
HCC1806 [4] = assay: Antiproliferative activity against human HCC1806 cells assessed as inhibition of cell growth by SRB assay; format: functional, cell-based
HCC1806 [5] = assay: Induction of cell cycle arrest in human HCC1806 cells assessed as accumulation at S phase at 10 uM incubated for 24 hrs by flow cytometric analysis; format: functional, cell-based
HCC1806 [6] = assay: Induction of cell cycle arrest in human HCC1806 cells assessed as decrease in G2/M phase cells at 10 uM incubated for 24 hrs by flow cytometric analysis; format: functional, cell-based
4T1 [7] = assay: Antitumor activity against mouse 4T1 cells implanted in BALB/C mouse assessed as tumor growth inhibition at 0.69 mg/kg administered once every two days for 15 days in the presence of adriamycin relative to control; format: functional; conditions: 4T1, 360 h, time 15 day, read-out: TGI
[8] = target: RAC-alpha serine/threonine-protein kinase (Homo sapiens) (UniProt P31749); assay: Inhibition of AKT phosphorylation in human HCC1806 cells at 10 uM incubated for 24 hrs by Western blot analysis; format: cell-based
HCC1806 [9] = assay: Inhibition of ERK phosphorylation in human HCC1806 cells at 10 uM incubated for 24 hrs by Western blot analysis; format: cell-based
HCC1806 [10] = assay: Antitumor activity against human HCC1806 cells assessed as reduction in p53 protein level at 10 uM incubated for 24 hrs by Western blot analysis; format: functional, cell-based
HCC1806 [11] = assay: Antitumor activity against human HCC1806 cells assessed as induction of phosphorylated p38 protein accumulation at 10 uM incubated for 24 hrs by Western blot analysis; format: functional, cell-based
HCC1806 [12] = assay: Antitumor activity against human HCC1806 cells assessed as induction of p21 protein accumulation at 10 uM incubated for 24 hrs by Western blot analysis; format: functional, cell-based
4T1 [13] = assay: Antitumor activity against mouse 4T1 cells implanted in BALB/C mouse assessed as tumor growth inhibition at 4 mg/kg administered once every two days for 15 days in the presence of toosendanin relative to control; format: functional; conditions: 4T1, 360 h, time 15 day, read-out: TGI

Chain of RAC-alpha serine/threonine-protein kinase (Homo sapiens) (P31749 whole entry): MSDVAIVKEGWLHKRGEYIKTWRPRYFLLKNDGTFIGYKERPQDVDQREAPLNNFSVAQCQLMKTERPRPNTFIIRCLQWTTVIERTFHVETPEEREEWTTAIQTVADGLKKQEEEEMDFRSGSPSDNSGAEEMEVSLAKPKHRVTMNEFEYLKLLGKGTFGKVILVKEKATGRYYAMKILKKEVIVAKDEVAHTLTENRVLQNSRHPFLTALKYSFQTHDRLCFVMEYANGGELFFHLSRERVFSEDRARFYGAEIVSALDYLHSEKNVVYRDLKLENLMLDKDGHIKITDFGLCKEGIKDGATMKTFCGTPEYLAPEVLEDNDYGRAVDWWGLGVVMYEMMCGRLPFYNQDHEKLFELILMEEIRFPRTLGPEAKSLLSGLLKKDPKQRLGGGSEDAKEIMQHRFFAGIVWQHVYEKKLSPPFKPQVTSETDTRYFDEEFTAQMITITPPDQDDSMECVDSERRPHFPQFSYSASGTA

Compound	inhibition at 20 µM (MDA-MB-231 [1])	inhibition at 20 µM (HCC1806 [2])	also measured
CC(=O)O[C@@H]1C[C@H](O)[C@@]23COC[C@]1(C)[C@@H]2C[C@@H](O)[C@@]1(C)[C@@H]2C(=O)C[C@@H](c4ccoc4)[C@]2(C)[C@@H](OC(C)=O)C(=O)[C@@H]13	5.4%	-42.3%	–
CC(=O)O[C@@H]1C[C@H](O)[C@@]23COC(=O)[C@]1(C)[C@@H]2C[C@@H](O)[C@@]1(C)[C@@H]2C(=O)C[C@@H](c4ccoc4)[C@]2(C)[C@@H](OC(C)=O)C(=O)[C@@H]13	6.87%	-24.7%	–
CC(=O)O[C@@H]1C[C@H](O)[C@@]23COC[C@]1(C)[C@@H]2C[C@@H](O)[C@@]1(C)[C@@H]2/C(=N/O)C[C@@H](c4ccoc4)[C@]2(C)[C@@H](OC(C)=O)C(=O)[C@@H]13	4.72%	10.9%	–
CC(=O)O[C@@H]1C[C@H](O)[C@@]23COC[C@]1(C)[C@@H]2C[C@@H](OC(=O)c1ccccc1)[C@@]1(C)[C@@H]2C(=O)C[C@@H](c4ccoc4)[C@]2(C)[C@@H](OC(C)=O)C(=O)[C@@H]13	20.7%	14.9%	–
CC(=O)O[C@@H]1C[C@H](O)[C@@]23COC[C@]1(C)[C@@H]2C[C@@H](O)[C@@]1(C)[C@@H]2[C@@H](O)C[C@@H](c4ccoc4)[C@]2(C)[C@@H](OC(C)=O)C(=O)[C@@H]13	61.5%	87.3%	IC50 (MDA-MB-231 [3]): 11.8 µM; IC50 (HCC1806 [4]): 5.76 µM
CC(=O)O[C@@H]1C[C@H](O)[C@@]23COC[C@]1(C)[C@@H]2C[C@@H](OC(=O)c1ccc([N+](=O)[O-])cc1)[C@@]1(C)[C@@H]2C(=O)C[C@@H](c4ccoc4)[C@]2(C)[C@@H](OC(C)=O)C(=O)[C@@H]13	3.95%	-0.88%	–
CC(=O)O[C@H]1C[C@@H](OC(C)=O)[C@]2(C)C(O)OC[C@]13[C@H]1C(=O)[C@H](OC(C)=O)[C@@]4(C)[C@H](c5ccoc5)C[C@H]5O[C@]54[C@]1(C)[C@H](OC(C)=O)C[C@@H]23 (stereo partly drawn)	6.36%	-27.9%	–
CC(=O)O[C@@H]1C[C@H](O)[C@@]23COC(=O)[C@]1(C)[C@@H]2C[C@@H](O)[C@]1(C)[C@@H]3C(=O)C(O)[C@@]2(C)[C@H](c3ccoc3)C[C@H]3O[C@@]312 (mixture of isomers)	9.58%	9.96%	–
CC(=O)O[C@@H]1C[C@H](O)[C@@]23COC[C@]1(C)[C@@H]2C[C@@H](O)[C@@]1(C)[C@@H]2C(=O)C[C@@H](c4coc(Br)c4)[C@]2(C)[C@@H](OC(C)=O)C(=O)[C@@H]13	-5.16%	2.97%	–
CC(=O)O[C@@H]1C[C@H](O)[C@@]23CO[C@@H](O)[C@]1(C)[C@@H]2C[C@@H](O)[C@]1(C)[C@@H]3C(=O)[C@H](OC(C)=O)[C@@]2(C)[C@H](c3ccoc3)C[C@H]3O[C@]321 [TOOSENDANIN]	79.2%	101%	IC50 (MDA-MB-231 [3]): 0.115 µM; IC50 (HCC1806 [4]): 0.019 µM; Activity (HCC1806 [5]): Active; Activity (HCC1806 [6]): Active; inhibition in vivo at 0.69 mg/kg (4T1 [7]): 90%; inhibition [8]: Active; inhibition (HCC1806 [9]): Active; Activity (HCC1806 [10]): Active; Activity (HCC1806 [11]): Active; Activity (HCC1806 [12]): Active
CC(=O)OC1OC[C@]23[C@@H](OC(C)=O)C[C@@H](OC(C)=O)[C@@]1(C)[C@@H]2C[C@@H](OC(C)=O)[C@]1(C)[C@@H]3C(=O)[C@H](OC(C)=O)[C@@]2(C)[C@H](c3ccoc3)C[C@H]3O[C@@]312 (stereo partly drawn)	128%	-31%	–
CC(=O)O[C@@H]1C[C@H](O)[C@@]23COC[C@]1(C)[C@@H]2CC(=O)[C@@]1(C)[C@@H]2C(=O)C[C@@H](c4ccoc4)[C@]2(C)[C@@H](OC(C)=O)C(=O)[C@@H]13	11.7%	14.7%	–
COC1OC[C@]23[C@@H](O)C[C@@H](OC(C)=O)[C@@]1(C)[C@@H]2C[C@@H](O)[C@@]1(C)[C@@H]2C(=O)C[C@@H](c4ccoc4)[C@]2(C)[C@@H](OC(C)=O)C(=O)[C@@H]13 (stereo partly drawn)	4.29%	-15.8%	–
CC(=O)O[C@@H]1C[C@H](O)[C@@]23COC[C@]1(C)[C@@H]2C[C@@H](OC(=O)/C=C/c1ccc(OC(F)(F)F)cc1)[C@@]1(C)[C@@H]2C(=O)C[C@@H](c4ccoc4)[C@]2(C)[C@@H](OC(C)=O)C(=O)[C@@H]13	9.9%	18.1%	–
CC(=O)O[C@@H]1C[C@H](O)[C@@]23COC[C@]1(C)[C@@H]2C[C@@H](OC(=O)c1ccccc1F)[C@@]1(C)[C@@H]2C(=O)C[C@@H](c4ccoc4)[C@]2(C)[C@@H](OC(C)=O)C(=O)[C@@H]13	8.23%	-1.53%	–
CC(=O)O[C@H]1C[C@@H](OC(C)=O)[C@]2(C)C(=O)OC[C@]13[C@H]1C(=O)[C@H](OC(C)=O)[C@@]4(C)[C@H](c5ccoc5)C[C@H]5O[C@]54[C@]1(C)[C@H](OC(C)=O)C[C@@H]23	4.86%	-9.68%	–
COc1cccc2c1C(=O)c1c(O)c3c(c(O)c1C2=O)C[C@@](O)(C(=O)CO)C[C@@H]3O[C@H]1C[C@H](N)[C@H](O)[C@H](C)O1 [DOXORUBICIN HYDROCHLORIDE]	–	–	inhibition in vivo at 4 mg/kg (4T1 [13]): 90%
CC(=O)O[C@@H]1C[C@H](O)[C@@]23COC(=O)[C@]1(C)[C@@H]2C[C@@H](O)[C@]1(C)[C@@H]3C(=O)[C@H](OC(C)=O)[C@@]2(C)[C@H](c3ccoc3)C[C@H]3O[C@]321	68.7%	93.8%	IC50 (MDA-MB-231 [3]): 6.61 µM; IC50 (HCC1806 [4]): 0.98 µM; Activity (HCC1806 [5]): Active; Activity (HCC1806 [6]): Active; inhibition [8]: Active; inhibition (HCC1806 [9]): Active; Activity (HCC1806 [10]): Active; Activity (HCC1806 [11]): Active; Activity (HCC1806 [12]): Active
COc1ccc(C(=O)O[C@@H]2C[C@H]3[C@@]4(C)COC[C@@]3([C@@H](O)C[C@H]4OC(C)=O)[C@H]3C(=O)[C@H](OC(C)=O)[C@]4(C)[C@@H](C(=O)C[C@H]4c4ccoc4)[C@]23C)cc1	14.3%	0.37%	–
